First: COc1ccnc(CS(=O)c2nc3cc(OC(F)F)ccc3n2S(=O)(=O)c2ccc(Cl)cc2)c1OC (configuration not stated)
Second: CC(OCc1cc2nc(Cl)ccc2n1S(=O)(=O)c1ccccc1)C(=O)O (configuration not stated)
The melting point of the first is lower: 82 to 83 °C for the first, 150 °C for the second.

First: O=C(NCc1ccccc1O)[C@@H]1CCCN(c2cccc3c2C(=O)N(Cc2ccncc2)C3=O)C1
Second: Cc1c2c(cn1C)N(C)C(=O)C(OC(=O)c1ccccc1)N=C2c1ccccc1Cl (configuration not stated)
The melting point of the first is lower: 181 to 182 °C for the first, 228 to 229 °C for the second.

Compared with `COc1cc(-c2nc(NC(=O)c3c(C)c4cc(C)ccc4n3CC(=O)O)sc2CCC2CCCCC2)c(OC)cc1C`, `COc1cc(C(=O)OC(C)(C)C)ccc1Cn1cc(CC(C)C(=O)O)c2ccc(C(=O)NCC3CCCC3)cc21` (configuration not stated) is higher in melting point: 150 to 152 °C for the first, 195 to 197 °C for the second.

First: Cc1nnc(-c2ccc3occ(-c4cccc(C#N)c4)c3c2)o1
Second: Cc1cccc(-c2nc3ccc(Cl)nn3c2-c2ccnc(N)n2)c1
The melting point of the first is lower: 204 to 205 °C for the first, 237 to 238 °C for the second.

First: C(=C(c1ccccc1)c1ccccc1)c1ccc(N(c2ccccc2)c2ccc3c4c(cccc24)CC3)cc1
Second: COc1ccc2c(c1)CCC(c1ccccc1)=C2c1ccccc1
The melting point of the first is higher: 189 to 190 °C for the first, 98 to 101 °C for the second.

Compared with `Clc1nn2cnnc2c2c1C1CCC2CC1`, `O=c1[nH]c2ncc(-c3ccc(-n4cccn4)cc3)nc2n1CCC1CCOCC1` is higher in melting point: 137 to 140 °C for the first, 294 to 296 °C for the second.

Compared with `Cc1ccc(OC2CCN(C(=O)C(=O)Nc3ccc4nc(S)[nH]c4c3)CC2)cc1`, `C#CCN1CCCc2ccc(OC(=O)Nc3ccc(Cl)cc3)cc21` is lower in melting point: 311 to 314 °C for the first, 160 °C for the second.

First: CCN(C)c1nc2sc3c(NCCCN4CCCC4=O)ncnc3c2c2c1CCC(C)(C)C2
Second: CC1(C)CCc2c(N3CCOCC3)nc3sc4c(NCc5ccccn5)ncnc4c3c2C1
The melting point of the first is lower: 166 to 167 °C for the first, 218 °C for the second.

Compared with `Cc1oc2cc(NS(C)(=O)=O)c(Oc3ccccc3)cc2c(=O)c1C(=O)O`, `CN1C(=O)C2(COc3cc4c(cc32)OCCO4)c2c(NS(C)(=O)=O)cccc21` (configuration not stated) is lower in melting point: 238 to 241 °C for the first, 184 to 186 °C for the second.

First: CC[C@H]1CN(c2c(F)cc3c(=O)c(C(=O)O)cn([C@@H]4C[C@@H]4F)c3c2OC)C[C@H]1N
Second: CNCC1CCN(c2c(F)cc3c(=O)c(C(=O)O)cn4c3c2OCC4C)C1 (configuration not stated)
The melting point of the first is lower: 217 to 219 °C for the first, 235 to 238 °C for the second.

First: O=S(=O)(ON=C1c2ccccc2-c2ccccc21)c1ccc(O)cc1
Second: O=C(NOC(=O)c1ccccc1)OCC1c2ccccc2-c2ccccc21
The melting point of the first is higher: 216 to 217 °C for the first, 150 °C for the second.

First: CC(C)(C)c1cc(C=Cc2ccccc2O)on1
Second: Nc1ccccc1/C=C/C(=O)CC(=O)/C=C/c1ccc(O)cc1
The melting point of the first is lower: 152 to 155 °C for the first, 186 to 193 °C for the second.

Going from `N=C(N)c1ccc(-c2ccc(Nc3ccc(CCC(=O)O)cc3)nn2)cc1` to `O=C(Nc1ccc2cc(CN3CCCCCC3)cnc2c1)c1ccc(-c2ccc(Cl)cc2)cc1`, the melting point falls from greater than 260 °C to 204 °C.

Compared with `COc1cc(C)c(C=CC(C)=CC=O)cc1C`, `COc1cc(OC)c2c(=O)[nH]c(-c3cc(C)c(OCC(=O)O)c(C)c3)nc2c1` is higher in melting point: 90 to 92 °C for the first, 270 to 272 °C for the second.

Compared with `O=C(O)C1CCCCC1C(=O)CCSSCCC(=O)C1CCCCC1C(=O)O` (configuration not stated), `CCc1cccc(C)c1N(CCCC(=O)O)C(=O)CCN(C(C)=O)c1c(C)cccc1C` is lower in melting point: 167 to 170 °C for the first, 139 to 141 °C for the second.

First: COc1ccc2[nH]c(C(=O)OC(C)(C)C)c(N)c2c1
Second: CCCCc1nc2c(N)nc3cccnc3c2n1CCNC(=O)C(CC(C)C)NC(=O)OC(C)(C)C (configuration not stated)
The melting point of the first is lower: 146 to 147 °C for the first, 184 to 185 °C for the second.

First: O=C(O)COc1cc(F)ccc1C(=O)NCc1nc2c(F)c(F)cc(F)c2s1
Second: C=CCNc1c(F)cc2c(=O)c(C(=O)O)cn(-c3nc(N)c(F)cc3F)c2c1Cl
The melting point of the first is lower: 172 to 174 °C for the first, 205 to 208 °C for the second.

First: CN1CC=C(c2c[nH]c3ccc(NS(=O)(=O)N(C)C)cc23)CC1
Second: COC1(c2cccc(S(=O)(=O)c3ccc4c(c3)sc(=O)n4C)c2)CCOCC1
The melting point of the first is higher: 207 to 208 °C for the first, 174 to 176 °C for the second.

First: CC1(C)COC(c2ccc(F)cc2-c2ccc3c(c2)CCC(Cc2ccccc2)C3O)=N1 (configuration not stated)
Second: O=C(Nc1ccc(C(F)(F)F)cc1)c1cc(-c2ccc(F)cc2F)ccc1O
The melting point of the first is lower: 88 to 89 °C for the first, 227 to 228 °C for the second.

First: CC(=O)OCCCc1nc(-c2ccc(Cl)cc2)co1
Second: CC(C)OC(=O)CCc1nc(-c2ccc(Cl)cc2)co1
The melting point of the first is higher: 37 to 37.5 °C for the first, 30 to 31 °C for the second.

First: CCc1noc(-c2ncc3[nH]c4cccc(CN5CCOCC5)c4c3c2COC)n1
Second: CCCc1c(COc2ccc(Cc3nnn(Cc4nnn[nH]4)n3)cc2)ccc(C(C)=O)c1O
The melting point of the first is higher: 161 to 163 °C for the first, 137 to 139 °C for the second.

First: O=C1c2cccc3cccc(c23)C(=O)N1CCO
Second: COC(=O)Cc1ccc2c(c1)C(=O)Cc1ccccc1C2
The melting point of the first is higher: 172 to 173 °C for the first, 111 to 112 °C for the second.

Compared with `N#Cc1cc2c(cc1C(F)(F)F)[nH]c(=O)c(=O)n2OCC(=O)O`, `CCOCC(=O)c1nc2c(Cl)cc(F)c(-n3c(=O)cc(C(F)(F)F)n(C)c3=O)c2o1` is lower in melting point: 257 °C for the first, 56 to 58 °C for the second.

Compared with `O=C(O)C(CF)=NOCC=Cc1ccccc1`, `CCN(C(=O)N(C)C(=O)NC)c1ccccc1` is lower in melting point: 81 to 83 °C for the first, 57 to 58 °C for the second.

First: CCN1C(=O)C(=O)N(c2ccc(Cl)cc2C)C1=S
Second: COC(=O)c1ccccc1-n1c(CCl)nc2c(C)cccc2c1=O
The melting point of the first is lower: 161 to 162 °C for the first, 168 to 169 °C for the second.

First: O=CNCC(=O)c1cccc(Nc2ccc3ccccc3n2)c1
Second: O=C(Nc1ccccc1)Nc1cccc(Nc2ncnc3[nH]cc(C(=O)c4ccccc4)c23)c1
The melting point of the first is lower: 194 to 196 °C for the first, greater than 300 °C for the second.

Compared with `COC(=O)NC(=O)c1nc(Cl)c(Cl)[nH]1`, `COC(=O)C1=C(C)NN=C(c2cccs2)C1c1cccc(Cl)c1` (configuration not stated) is lower in melting point: 247 °C for the first, 191 °C for the second.

Compared with `C[C@@H]1Cc2cc(N3C[C@H](COS(C)(=O)=O)OC3=O)ccc2N1C(=O)OCc1ccccc1`, `Cc1nc(-n2cc(C(F)(F)F)ccc2=O)sc1C(=O)NCc1ccccc1` is higher in melting point: 72 to 73 °C for the first, 148 to 149 °C for the second.

First: CC1(CC(=O)O)OCCc2nc(-c3ccccc3)sc21 (configuration not stated)
Second: Cn1ncc2c1-c1c(Sc3ccccc3)sc(C(N)=O)c1CC2
The melting point of the first is higher: 143 to 145 °C for the first, 140 to 141 °C for the second.

Compared with `CCOC(=O)C1=C[C@@H](OC(CC)CC)[C@@H](NC(C)=O)[C@H](N=[N+]=[N-])[C@@H]1O`, `CCOCCOc1ccc2c(c1)C(N(CC)S(C)(=O)=O)CC(C)(C)O2` (configuration not stated) is lower in melting point: 112 to 115 °C for the first, 73 to 75 °C for the second.

Compared with `O=C(c1ccccc1)C(c1ccc(Cl)cc1Cl)C(F)n1cncn1` (configuration not stated), `O=C(c1ccccc1)c1c(Cl)cc2n1CCC2C(=O)O` (configuration not stated) is higher in melting point: 104 to 108 °C for the first, 190 °C for the second.

First: Cc1cccc(COc2cccc(OCc3ccc(C(C)(C)C)cc3)c2)c1C(=O)O
Second: CN(C)Cc1ccc(-c2cccc(-c3ccnc4c(C(=O)c5cccs5)cnn34)c2)cc1
The melting point of the first is lower: 122 to 123 °C for the first, 192 to 195 °C for the second.

First: BrCCc1ccc([Si](c2ccccc2)(c2ccccc2)c2ccc(CCBr)cc2)cc1
Second: CCn1c(C(O)(c2ccccc2)c2ccccc2)nc(-c2ccncc2)c1-c1ccc(Cl)cc1
The melting point of the first is lower: 220 °C for the first, 222 to 223 °C for the second.

First: C=CCOc1cc2c(cc1C)OC1(CC(C)(C)c3cc(O)c(C)cc3O1)CC2(C)C (configuration not stated)
Second: CC(C)(C)c1cc(CSCN(O)CSCc2cc(C(C)(C)C)c(O)c(C(C)(C)C)c2)cc(C(C)(C)C)c1O
The melting point of the first is higher: 143 to 144 °C for the first, 98 to 101 °C for the second.

First: CC(=O)c1ncccc1C(O)=NNC(=O)Nc1cc(F)cc(F)c1
Second: O=C(NCc1ccc(Cl)cc1)c1cnc2c(F)cc(C#CCCCO)cc2c1O
The melting point of the first is lower: 79 to 82 °C for the first, 208 to 209 °C for the second.

First: CC(C)OCC1(C(C)(F)F)c2cc(C#N)ccc2Nc2ncccc21 (configuration not stated)
Second: CC(C)n1cnc2c(NCc3ccccc3)nc(NCCCO)nc21
The melting point of the first is higher: 134 to 135 °C for the first, 98 to 101 °C for the second.

First: COc1cc(-c2nc3ccccc3n2Cc2ccc(Cl)c(Cl)c2)cc(OC)c1OC
Second: COc1cccc(OC)c1C(=O)Nc1nnc(-c2ccc(Cl)cc2)s1
The melting point of the first is lower: 145 °C for the first, 238 to 240 °C for the second.

Compared with `Nc1ncnc2c1ncn2OCCCCP(=O)(O)O`, `OCCCOc1ccc(-n2ccnc2)cc1` is lower in melting point: 265 to 268 °C for the first, 76 to 78 °C for the second.

Compared with `O=C1NCC(=O)c2c(ncn2C2OC(COC(=O)c3ccccc3)C(OC(=O)c3ccccc3)C2OC(=O)c2ccccc2)N1` (configuration not stated), `CCn1c2ccccc2c2cc(NC(=O)c3ccccc3C(F)(F)F)ccc21` is lower in melting point: 239 °C for the first, 206 to 207 °C for the second.

`CC(C)(C)NC(=O)[C@@H]1C[C@H](N2CCOCC2)CN1C(=O)OC(C)(C)C` and `COC12CC(CO)CN(C)C1Cc1cn(C(C)(C)C)c3cccc2c13` (configuration not stated) cannot be ordered by melting point: 172 to 173 °C for the first, 172 to 174 °C for the second.

Compared with `N#Cc1c(N2CCCCC2)cc(-c2cccs2)c2c1-c1ccccc1C2=O`, `CC(C)OC(=O)c1ncn2c1[C@@H]1CCCN1C(=O)c1ccccc1-2` is higher in melting point: 172 to 174 °C for the first, 207 to 208 °C for the second.

`CC1=C(C(=O)N(C)C)C(c2ccccc2Cl)c2c[nH]nc2N1` (configuration not stated) and `CC1(c2ccc(O)c(Br)c2)C(=O)Nc2cc(Cl)cc(Cl)c2C1=O` (configuration not stated) cannot be ordered by melting point: 229 °C for the first, 228 to 229 °C for the second.

Compared with `COc1ccc(C2CCc3cc(OC)ccc3C2CCCn2ccnc2)cc1` (configuration not stated), `Cc1ccc2cc(CCCc3ccncc3)c(=O)n(-c3cccc([N+](=O)[O-])c3)c2n1` is higher in melting point: 67 °C for the first, 165 to 166 °C for the second.

Compared with `CCCCCCCCCCCC(OO)OOC(CCCCCCCCCCC)OO` (configuration not stated), `CC(C)c1nn(-c2ccc(Cl)cn2)cc1CCCO` is higher in melting point: 56 to 58 °C for the first, 93 to 95 °C for the second.

Compared with `CS(=O)(=O)c1ccc(C(Br)C(=O)c2ccc(F)cc2)cc1` (configuration not stated), `C=Cc1ccc(S(N)(=O)=O)cc1` is lower in melting point: 140 to 141 °C for the first, 130 to 132 °C for the second.

First: O=C(O)CCCc1cc2nc(Cl)ccc2n1S(=O)(=O)c1cccc(Cl)c1
Second: c1ccc2c(c1)ccc1nn[nH]c12
The melting point of the first is lower: 174 °C for the first, 245 to 247 °C for the second.

Compared with `CNC(=O)C1SCSC(=NO)S1` (configuration not stated), `Cc1c(NC(=O)c2ccc(C#CC3(O)CCC3)cc2)ccc2cc(CNCC(C)(C)C)n(C)c12` is higher in melting point: 129 to 130 °C for the first, 232 to 233 °C for the second.

First: COc1cc(C(=O)C=Cc2ccc(Br)cc2)ccc1OC1CCCCO1 (configuration not stated)
Second: COc1cc(C(C)C)c(Oc2cnc(N)nc2N)cc1-c1ncon1
The melting point of the first is higher: 142 to 145 °C for the first, 135 to 138 °C for the second.

`CC(C)OC1C=CC(=O)N1` (configuration not stated) showed a melting point of 79 to 81 °C.
